Measurements from the supplement of paper PMC10307832.

Legend:
Test in all cases: relative viability (nuclei count vs DMSO), 5 days (fraction); higher = more cells survive
NCI-H322M = system: NCI-H322M
Outline: (§1)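 Cells from lung cancer lines were seeded into 1536-well plates and, one day later, dosed by pin tool. Treatments were either a single drug or a fixed dose of an anchor drug with five library-drug doses (not always all listed) in √10 steps. After 5 days, nuclei were stained in a one-step fixation (final 0.05% Triton X-100, 1% formaldehyde, 1 ug/ml Hoechst) and counted on 4× images, and relative viability is the treated-to-vehicle nuclei ratio, as the median of duplicate plates.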

H3255 = system: H3255
Outline: as §1

NCI-H1666 = system: NCI-H1666
Outline: as §1

NCI-H358 = system: NCI-H358
Outline: as §1

UMC-11 = system: UMC-11
Outline: as §1

LXF-289 = system: LXF-289
Outline: as §1

SK-MES-1 = system: SK-MES-1
Outline: as §1

HCC-15 = system: HCC-15
Outline: as §1

LCLC-97TM1 = system: LCLC-97TM1
Outline: as §1

ChaGo-K-1 = system: ChaGo-K-1
Outline: as §1

NCI-H661 = system: NCI-H661
Outline: as §1

LC-2-ad = system: LC-2-ad
Outline: as §1

NCI-H650 = system: NCI-H650
Outline: as §1

LK-2 = system: LK-2
Outline: as §1

NCI-H596 = system: NCI-H596
Outline: as §1

NCI-H2087 = system: NCI-H2087
Outline: as §1

HCC-78 = system: HCC-78
Outline: as §1

NCI-H838 = system: NCI-H838
Outline: as §1

NCI-H1944 = system: NCI-H1944
Outline: as §1

BEN = system: BEN
Outline: as §1

PC-3 [JPC-3] = system: PC-3 [JPC-3]
Outline: as §1

NCI-H1651 = system: NCI-H1651
Outline: as §1

LU99A = system: LU99A
Outline: as §1

`Clc1ccc(Nc2nnc(Cc3ccncc3)c3ccccc23)cc1` [Vatalanib] + C[C@@H](Oc1cc(-c2cnn(C3CCNCC3)c2)cnc1N)c1c(Cl)ccc(F)c1Cl [Crizotinib] (partner 1 µM) gave a relative viability (NCI-H322M; first compound 0.04 µM) of 1.02, a relative viability (NCI-H322M; first compound 0.1265 µM) of 0.891 and a relative viability (NCI-H322M; first compound 0.4 µM) of 0.958. For the same compound, the relative viability (NCI-H322M; first compound 1.265 µM) was 0.858, the relative viability (NCI-H322M; first compound 4 µM) was 0.939 and the relative viability (H3255; first compound 0.04 µM) was 0.986. The relative viability (H3255; first compound 0.1265 µM) was 0.878, the relative viability (H3255; first compound 0.4 µM) was 0.718 and the relative viability (H3255; first compound 1.265 µM) was 0.802. For the same compound, the relative viability (H3255; first compound 4 µM) was 0.85, the relative viability (NCI-H1666; first compound 0.04 µM) was 0.968 and the relative viability (NCI-H1666; first compound 0.1265 µM) was 0.985. The relative viability (NCI-H1666; first compound 0.4 µM) was 1.06, the relative viability (NCI-H1666; first compound 1.265 µM) was 0.889 and the relative viability (NCI-H1666; first compound 4 µM) was 0.742. It also gave a relative viability (NCI-H358; first compound 0.04 µM) of 0.641, a relative viability (NCI-H358; first compound 0.1265 µM) of 0.522 and a relative viability (NCI-H358; first compound 0.4 µM) of 0.8. For the same compound, the relative viability (NCI-H358; first compound 1.265 µM) was 0.585, the relative viability (NCI-H358; first compound 4 µM) was 0.602 and the relative viability (UMC-11; first compound 0.04 µM) was 0.616. For the same compound, the relative viability (UMC-11; first compound 0.1265 µM) was 0.585, the relative viability (UMC-11; first compound 0.4 µM) was 0.719 and the relative viability (UMC-11; first compound 1.265 µM) was 0.586. For the same compound, the relative viability (UMC-11; first compound 4 µM) was 0.629, the relative viability (LXF-289; first compound 0.04 µM) was 0.665 and the relative viability (LXF-289; first compound 0.1265 µM) was 0.743. The relative viability (LXF-289; first compound 0.4 µM) was 0.807, the relative viability (LXF-289; first compound 1.265 µM) was 0.717 and the relative viability (LXF-289; first compound 4 µM) was 0.78. It also gave a relative viability (SK-MES-1; first compound 0.04 µM) of 1.01, a relative viability (SK-MES-1; first compound 0.1265 µM) of 0.808 and a relative viability (SK-MES-1; first compound 0.4 µM) of 1.14. The relative viability (SK-MES-1; first compound 1.265 µM) was 0.927, the relative viability (SK-MES-1; first compound 4 µM) was 0.925 and the relative viability (HCC-15; first compound 0.04 µM) was 0.9. The relative viability (HCC-15; first compound 0.1265 µM) was 0.768, the relative viability (HCC-15; first compound 0.4 µM) was 0.79 and the relative viability (HCC-15; first compound 1.265 µM) was 0.812. The relative viability (HCC-15; first compound 4 µM) was 0.841, the relative viability (LCLC-97TM1; first compound 0.04 µM) was 0.308 and the relative viability (LCLC-97TM1; first compound 0.1265 µM) was 0.312. For the same compound, the relative viability (LCLC-97TM1; first compound 0.4 µM) was 0.447, the relative viability (LCLC-97TM1; first compound 1.265 µM) was 0.386 and the relative viability (LCLC-97TM1; first compound 4 µM) was 0.365. For the same compound, the relative viability (ChaGo-K-1; first compound 0.04 µM) was 1.18, the relative viability (ChaGo-K-1; first compound 0.1265 µM) was 1.14 and the relative viability (ChaGo-K-1; first compound 1.265 µM) was 1.1. For the same compound, the relative viability (ChaGo-K-1; first compound 4 µM) was 1.09, the relative viability (NCI-H661; first compound 0.04 µM) was 1.03 and the relative viability (NCI-H661; first compound 0.4 µM) was 0.986. The relative viability (NCI-H661; first compound 1.265 µM) was 0.885, the relative viability (NCI-H661; first compound 4 µM) was 0.872 and the relative viability (LC-2-ad; first compound 0.04 µM) was 0.515. It also gave a relative viability (LC-2-ad; first compound 0.1265 µM) of 0.436, a relative viability (LC-2-ad; first compound 1.265 µM) of 0.456 and a relative viability (LC-2-ad; first compound 4 µM) of 0.458. It also gave a relative viability (NCI-H650; first compound 0.04 µM) of 0.726, a relative viability (NCI-H650; first compound 0.1265 µM) of 0.627 and a relative viability (NCI-H650; first compound 1.265 µM) of 0.641. The relative viability (NCI-H650; first compound 4 µM) was 0.606, the relative viability (LK-2; first compound 0.04 µM) was 0.243 and the relative viability (LK-2; first compound 0.1265 µM) was 0.232. It also gave a relative viability (LK-2; first compound 1.265 µM) of 0.252, a relative viability (LK-2; first compound 4 µM) of 0.233 and a relative viability (NCI-H596; first compound 0.04 µM) of 1.05. The relative viability (NCI-H596; first compound 0.1265 µM) was 1.02, the relative viability (NCI-H596; first compound 0.4 µM) was 0.884 and the relative viability (NCI-H596; first compound 1.265 µM) was 0.955. The relative viability (NCI-H596; first compound 4 µM) was 1.16, the relative viability (NCI-H2087; first compound 0.04 µM) was 0.89 and the relative viability (NCI-H2087; first compound 0.1265 µM) was 1.07. The relative viability (NCI-H2087; first compound 0.4 µM) was 0.828, the relative viability (NCI-H2087; first compound 1.265 µM) was 0.826 and the relative viability (NCI-H2087; first compound 4 µM) was 0.89. The relative viability (HCC-78; first compound 0.04 µM) was 0.318, the relative viability (HCC-78; first compound 0.1265 µM) was 0.324 and the relative viability (HCC-78; first compound 0.4 µM) was 0.35. The relative viability (HCC-78; first compound 4 µM) was 0.306, the relative viability (NCI-H838; first compound 0.04 µM) was 0.837 and the relative viability (NCI-H838; first compound 0.1265 µM) was 0.867. For the same compound, the relative viability (NCI-H838; first compound 0.4 µM) was 1.01, the relative viability (NCI-H838; first compound 1.265 µM) was 0.73 and the relative viability (NCI-H838; first compound 4 µM) was 0.79. It also gave a relative viability (NCI-H1944; first compound 0.04 µM) of 1.13, a relative viability (NCI-H1944; first compound 0.1265 µM) of 0.986 and a relative viability (NCI-H1944; first compound 0.4 µM) of 1.23. It also gave a relative viability (NCI-H1944; first compound 1.265 µM) of 1.1, a relative viability (NCI-H1944; first compound 4 µM) of 1.05 and a relative viability (BEN; first compound 0.04 µM) of 1.03. The relative viability (BEN; first compound 0.1265 µM) was 0.764, the relative viability (BEN; first compound 0.4 µM) was 1.01 and the relative viability (BEN; first compound 1.265 µM) was 0.858. It also gave a relative viability (BEN; first compound 4 µM) of 1.01, a relative viability (PC-3 [JPC-3]; first compound 0.04 µM) of 0.978 and a relative viability (PC-3 [JPC-3]; first compound 0.1265 µM) of 0.872. The relative viability (PC-3 [JPC-3]; first compound 0.4 µM) was 0.967, the relative viability (PC-3 [JPC-3]; first compound 1.265 µM) was 0.937 and the relative viability (PC-3 [JPC-3]; first compound 4 µM) was 0.949. The relative viability (NCI-H1651; first compound 0.04 µM) was 0.865, the relative viability (NCI-H1651; first compound 0.1265 µM) was 0.839 and the relative viability (NCI-H1651; first compound 0.4 µM) was 0.858. For the same compound, the relative viability (NCI-H1651; first compound 1.265 µM) was 0.86, the relative viability (NCI-H1651; first compound 4 µM) was 0.925 and the relative viability (LU99A; first compound 0.04 µM) was 0.597. For the same compound, the relative viability (LU99A; first compound 0.1265 µM) was 0.524, the relative viability (LU99A; first compound 0.4 µM) was 0.63 and the relative viability (LU99A; first compound 1.265 µM) was 0.528. For the same compound, the relative viability (LU99A; first compound 4 µM) was 0.513.
